Experimental data taken from patent US20120035161A1, “Novel Compositions and Methods of Treating Diseases Using the Same” (CORRIDOR PHARMACEUTICALS, INC., priority 2006, published 2012).

Experiments:
[1] = tested on: Aspergillus fumigatus-based mouse asthma model; test: Aspergillus fumigatus-based mouse asthma model, lung resistance; format: in vivo; settings: 20 mg/ml, intraperitoneally
Experimental: Compounds of the invention were also tested for efficiacy in an asthma model.
A cohort of mice was administered intraperitoneal injections of Aspergillus fumigatus on days 0, 14, 26, 27, and 28. Lung resistance was tested on day 29 immediately following a tracheotomy/methacholine procedure. Animals receiving dexamethasone were administered dexamethasone on days 26, 27 and 28. Animals receiving a compound of the invention were administered the compound just hours before the lung resistance test. As a control, all test compounds, as well as dexamethasone, were also administered to mice in the absence of an A. fumigatus insult.

[2] = tested on: Serotonin (5-Hydroxytryptamine) 5-HT1, Non-Selective; test: Assay 271000 radioligand binding, 5-HT1 non-selective; parameters: species or system Wistar Rat
Experimental: (§1) The methods employed in this study have been adapted from the scientific literature to maximize reliability and reproducibility. Reference standards were run as an integral part of each assay to ensure the validity of the results obtained. Assays were performed under conditions as described below. Where presented, IC50 values were determined by a non-linear, least squares regression analysis using the Data Analysis Toolbox (MDL Information Systems, San Leandro, Calif., USA). Where inhibition constants (Ki) are presented, the Ki values were calculated using the equation of Cheng and Prusoff (Cheng, Y., Prusoff, W. H., Biochem. Pharmacol. 22:3099-3108, 1973) using the observed IC50 of the tested compound, the concentration of radioligand employed in the assay, and historical values for the KD of the ligand. Where presented, the Hill coefficient (nu), defining the slope of the competitive binding curve, was calculated using the Data Analysis Toolbox.

[3] = target: T1, Serotonin (5-Hydroxytryptamine) 5-HT1A (Homo sapiens, UniProt P08908); test: Radioligand binding, 5-HT1A ([3H] 8-OH-DPAT)
T1 construct: expressed in transfected cells; host or cells: CHO cells
T1 sequence (P08908 1-422): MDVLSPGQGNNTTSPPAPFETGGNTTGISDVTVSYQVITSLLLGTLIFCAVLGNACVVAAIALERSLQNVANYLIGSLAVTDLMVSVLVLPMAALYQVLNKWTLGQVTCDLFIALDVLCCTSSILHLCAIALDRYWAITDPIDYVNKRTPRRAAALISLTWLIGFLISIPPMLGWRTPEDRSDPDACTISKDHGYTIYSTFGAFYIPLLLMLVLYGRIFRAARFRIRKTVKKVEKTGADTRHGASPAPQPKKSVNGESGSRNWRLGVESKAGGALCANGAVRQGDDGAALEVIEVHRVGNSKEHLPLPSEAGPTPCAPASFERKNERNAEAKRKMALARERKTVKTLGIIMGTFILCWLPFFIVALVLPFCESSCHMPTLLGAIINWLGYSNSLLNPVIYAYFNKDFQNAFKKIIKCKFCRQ
Experimental: as §1

[4] = target: T2, Serotonin (5-Hydroxytryptamine) 5-HT1B (Rattus norvegicus, UniProt P28564); test: Assay 271200 radioligand binding, 5-HT1B; parameters: species or system Wistar Rat
T2 construct: from tissue
Experimental: as §1

[5] = tested on: Serotonin (5-Hydroxytryptamine) 5-HT2, Non-Selective; test: Assay 271600 radioligand binding, 5-HT2 non-selective; parameters: species or system Wistar Rat
Experimental: as §1

[6] = tested on: Monocrotaline model of pulmonary arterial hypertension; test: Monocrotaline model of pulmonary arterial hypertension (PAH); format: in vivo, Sprague-Dawley rats
Experimental: Adult male Sprague-Dawley rats (287±4 g) were obtained from Charles River Laboratories (Raleigh, N.C.). Animals housed individually in a temperature/humidity controlled room with 12-hour light/dark cycles had free access to water and food and were acclimated for one week prior to the study. All experimental protocols were approved by the University of Illinois at Chicago Care and Use Committee, and all experiments were conducted in accordance with the NIH guidelines for animal welfare.
Rats were randomly assigned to one of five experimental groups (n=10 per group). Rats in groups 1 and 2 served as healthy controls; the remaining rats were injected subcutaneously on Day 0 with 60 mg/kg body weight monocrotaline, the toxic alkaloid of C. spectabilis (dissolved in DMSO at a concentration of 60 mg/mL, Sigma Aldrich, St. Louis, Mo.). On days 1-21, rats were dosed via oral gavage (2 mL/kg) with vehicle (PBS), or ICI-735 at 1 mg/kg or 10 mg/kg. Rats were weighed daily, and the dosages were adjusted appropriately. […]
After the lungs were harvested, they were instilled with 10% neutral buffered formalin and immersed in the same fixative. The left and right caudal lung lobes were trimmed to produce six transverse samples per rat and these samples were routinely processed and embedded in paraffin blocks. Sections (approximately 5 μm thick) were stained with Verhoeff's elastin/eosin stain and examined by light microscopy, Histopathological findings were classified as: 1-alveolar inflammation and septal remodeling, 2-perivascular inflammation and edema, 3-perivascular fibrosis, and 4-arteriolar medial hypertrophy. The findings were graded by a pathologist without knowledge of treatment group assignment as 0 (not present), 1 (minimal), 2 (mild), 3 (moderate), or 4 (marked).
The distribution of each finding, if present was classified as multifocal or diffuse. The degree of muscularization of small peripheral pulmonary arteries was assessed by examination of sections immunohistochemically reacted with an anti-alpha-smooth muscle actin antibody (rabbit polyclonal ab5694 diluted 1:100, Abeam, Cambridge, Mass.). […]

[7] = MCT + 1 mg/kg ICI-735, 21 days, n = 10
[8] = MCT + 10 mg/kg ICI-735, 21 days, n = 10
[9] = MCT rats, daily oral 10 mg/kg for 21 days, p<0.05
[10] = SI + 10 mg/kg ICI-735, 21 days, n = 10

T2 sequence (P28564 whole entry): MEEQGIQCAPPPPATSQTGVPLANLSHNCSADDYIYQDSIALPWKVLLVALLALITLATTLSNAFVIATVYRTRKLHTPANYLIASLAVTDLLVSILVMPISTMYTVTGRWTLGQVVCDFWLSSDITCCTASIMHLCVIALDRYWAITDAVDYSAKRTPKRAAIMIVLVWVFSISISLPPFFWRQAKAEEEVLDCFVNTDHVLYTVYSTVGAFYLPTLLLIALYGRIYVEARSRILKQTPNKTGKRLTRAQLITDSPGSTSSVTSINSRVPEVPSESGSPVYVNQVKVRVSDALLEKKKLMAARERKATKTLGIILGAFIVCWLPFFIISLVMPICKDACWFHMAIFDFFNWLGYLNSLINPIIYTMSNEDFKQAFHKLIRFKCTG

NCC(=O)NCCN1CCN(CCCN2c3ccccc3Sc3ccc(C(F)(F)F)cc32)CC1 [ICI-735]
Lung resistance ([1]; A. fumigatus insult, day 29): 8.5 cm H2O/ml/s | decreasing lung resistance compared with dexamethasone [1]: at least as effective as dexamethasone | % INHIBITION ([2]; 0.1 μM): 16% | % INHIBITION ([2]; 10 μM): 63% | inhibition at 0.1 µM ([3]; 0.1 μM): 14% | inhibition at 10 µM ([3]; 10 μM): 89% | inhibition at 0.1 µM ([4]; 0.1 μM): 13% | inhibition at 10 µM ([4]; 10 μM): 86% | % INHIBITION ([5]; 0.1 μM): 62% | % INHIBITION ([5]; 10 μM): 91% | physical or behavioral drug-related toxicity, daily clinical evaluation ([6]; 1 or 10 mg/kg oral, 21 days): no evidence | Incidence: Alveolar inflammation/septal remodeling, severity score 1 [6, 7]: 3 | Incidence: Alveolar inflammation/septal remodeling, severity score 2 [6, 7]: 4 | Incidence: Alveolar inflammation/septal remodeling, severity score 3 [6, 7]: 1 | Incidence: Alveolar inflammation/septal remodeling, severity score 4 [6, 7]: 2 | Incidence: Arteriolar medial hypertrophy, severity score 1 [6, 7]: 1 | Incidence: Arteriolar medial hypertrophy, severity score 2 [6, 7]: 6 | Incidence: Arteriolar medial hypertrophy, severity score 3 [6, 7]: 3 | Incidence: Perivascular flbrosis, severity score 0 [6, 7]: 2 | Incidence: Perivascular flbrosis, severity score 1 [6, 7]: 5 | Incidence: Perivascular flbrosis, severity score 2 [6, 7]: 3 | Incidence: Perivascular inflammation/edema, severity score 1 [6, 7]: 4 | Incidence: Perivascular inflammation/edema, severity score 2 [6, 7]: 5 | Incidence: Perivascular inflammation/edema, severity score 3 [6, 7]: 1 | Incidence: Alveolar inflammation/septal remodeling, severity score 1 [6, 8]: 6 | Incidence: Alveolar inflammation/septal remodeling, severity score 2 [6, 8]: 3 | Incidence: Alveolar inflammation/septal remodeling, severity score 3 [6, 8]: 1 | Incidence: Arteriolar medial hypertrophy, severity score 0 [6, 8]: 3 | Incidence: Arteriolar medial hypertrophy, severity score 1 [6, 8]: 5 | Incidence: Arteriolar medial hypertrophy, severity score 2 [6, 8]: 2 | Incidence: Perivascular flbrosis, severity score 0 [6, 8]: 7 | Incidence: Perivascular flbrosis, severity score 1 [6, 8]: 3 | Incidence: Perivascular inflammation/edema, severity score 1 [6, 8]: 8 | Incidence: Perivascular inflammation/edema, severity score 2 [6, 8]: 2 | effects of MCT on PAP, RVSP and RV/BW ([6]; MCT rats, 1 mg/kg): did not attenuate | incidences and severities of perivascular fibrosis and arteriolar medial hypertrophy ([6]; MCT rats, 10 mg/kg): marked decrease | severities of alveolar inflammation and septal remodeling, and perivascular inflammation and edema ([6]; MCT rats, 10 mg/kg, compared to MCT/vehicle): clearly diminished | reduction of MCT-induced elevation of PAP [6, 9]: 75% | reduction of MCT-induced elevation of RV/BW [6, 9]: 81% | reduction of MCT-induced elevation of RVSP [6, 9]: 78% | degree of muscularization of pulmonary arterioles compared with SI/vehicle controls ([6]; MCT rats, high-dose): no significant differences | Incidence: Alveolar inflammation/septal remodeling, severity score 0 [6, 10]: 1 | Incidence: Alveolar inflammation/septal remodeling, severity score 1 [6, 10]: 9 | Incidence: Arteriolar medial hypertrophy, severity score 0 [6, 10]: 10 | Incidence: Perivascular flbrosis, severity score 0 [6, 10]: 10 | Incidence: Perivascular inflammation/edema, severity score 0 [6, 10]: 4 | Incidence: Perivascular inflammation/edema, severity score 1 [6, 10]: 5 | Incidence: Perivascular inflammation/edema, severity score 2 [6, 10]: 1 | changes in PAP, RVSP or RV/BW compared with vehicle controls ([6]; SI rats, 10 mg/kg): no changes | Mean arterial pressure (MAP) compared with controls ([6]; all ICI-735-treated groups): unmodified | heart rate (HR) compared with controls ([6]; all ICI-735-treated groups): unmodified
